According to patent US11414436B2, “Non-coordinating anion type activators containing cation having large alkyl groups” (ExxonMobil Chemical Patents Inc., priority 2018, dated 2022):
Several values for one entry are separate records, joined by “and”; a condition that tells them apart may be missing. Equal values may be shown once.

Assays:
[1] = RUN B: ethylene-octene polymerization in parallel pressure reactor, activator diluent toluene or methylcyclohexane; conditions: ethylene-octene copolymerization; for activity: Cat 1 (MCN-1)
Protocol: RUN B: Polymerization in Parallel Pressure Reactor.
A series of ethylene-octene polymerizations were performed in the parallel pressure reactor according to the procedure described above. […] In a typical experiment an automated syringe was used to introduce into the reactor the following reagents, if utilized, in the following order: isohexane (0.35 mL), an isohexane solution of TNOAL scavenger (0.005 M, 60 μL), additional isohexane (0.35 mL), a toluene solution of the respective polymerization catalyst (150 μL, 0.4 mM, 20 nm [cat]/100 μL [toluene]), additional isohexane (0.35 mL), a toluene or methylcyclohexane solution of the respective activator (150 μL, 0.4 mM, (20 nm [act]/100 μL[ diluent])), then additional isohexane so that the total solvent volume for each run was 5 mL. Catalyst and activator were used in a 1:1 ratio. Each reaction was performed at a specified temperature range between 50 and 120° C., typically 95° C., while applying about 100 psig of ethylene (monomer) gas. Each reaction was allowed to run for about 1 hour (˜3600 seconds) or until approximately 20 psig of ethylene gas uptake was observed, at which point the reactions were quenched with air (˜300 psig). When sufficient polymer yield was attained (e.g., at least ˜10 mg), the polyethylene product was analyzed by Rapid GPC, described below.
In a typical experiment, the anilinium borate activators were combined with toluene or methylcyclohexane as diluent and introduced to the parallel, pressure reactor via syringe. By this mechanism of activator introduction, only well dissolved activators could be delivered to the reactor providing a means to discriminate between the polymerization performance of long chain soluble anilinium borates vs. conventional anilinium borates. Following addition of activator, the catalyst Cat 1 was introduced, via syringe as well-dissolved toluene solution and the polymerization was conducted per the methodology described above.

[2] = Solubility studies of the activators (saturated solution in isohexane or methylcyclohexane); format: physicochemical; conditions: methylcyclohexane
[3] = as above; format: physicochemical
Outline: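 Solid activators stirred in excess with isohexane or methylcyclohexane for several hours at 25 °C, filtered, and a filtrate aliquot evaporated and weighed. Emulsion-forming activators titrated with solvent until homogeneous, with activator mass found gravimetrically. Saturated concentration given in mM.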

Solubility limit in MeCy (wt % at 25° C.) [2]	Solubility limit in i-hexane (mM at 25° C.) ([3]; isohexane)	Solubility limit in i-hexane (wt % at 25° C.) ([3]; isohexane)	Solubility limit in MeCy (mM at 25° C.) ([3]; methylcyclohexane)	Compound	quantity of polymer obtained with methylcyclohexane as diluent ([1]; Cat 1, activator in methylcyclohexane)	activity ([1]; activator diluent MeCy (methylcyclohexane))	activity ([1]; activator diluent Toluene, listed as C2)
–	–	–	–	N,N-dimethylanilinium tetrakis(heptafluoronaphthalen-2-yl)borate [DMAH-BF28, reference compound]	insufficient for analysis	0.0 kg/mmol/h	441.3 kg/mmol/h and 392.4 kg/mmol/h and 390.1 kg/mmol/h and 408.1 kg/mmol/h
35 wt %	120 mM	29 wt %	160 mM	CCCCCCCCCCCCCCCCCC[NH+](CCCCCCCCCCCCCCCCCC)c1ccc(C)cc1.Fc1c(F)c(F)c2c(F)c([B-](c3c(F)c(F)c4c(F)c(F)c(F)c(F)c4c3F)(c3c(F)c(F)c4c(F)c(F)c(F)c(F)c4c3F)c3c(F)c(F)c4c(F)c(F)c(F)c(F)c4c3F)c(F)c(F)c2c1F [DOdTH-BF28, 4-methyl-N,N-dioctadecylbenzenaminium-BF28]	–	–	–
